# PubChem BioAssay (NCI)
# Several values for one entry are separate records, joined by “and”; a condition that tells them apart may be missing. Identical values can stand only once.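 Exposure lasted 48 hours, with cells grown in 96-well plates and compounds tested at five concentrations. GI50 = concentration required for 50% inhibition of growth. TGI denotes the concentration required for complete inhibition of growth.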
# Assays:
# Test in all cases: NCI-60 cell line screen, 48 h
# HCT-116 colon = system: HCT-116 colon
# HCT-15 colon = system: HCT-15 colon
# HL-60(TB) leukemia = system: HL-60(TB) leukemia
# HOP-62 NSCLC = system: HOP-62 NSCLC
# HOP-92 NSCLC = system: HOP-92 NSCLC
# K-562 leukemia = system: K-562 leukemia
# KM12 colon = system: KM12 colon
# NCI/ADR-RES ovarian = system: NCI/ADR-RES ovarian
# OVCAR-3 ovarian = system: OVCAR-3 ovarian
# SF-539 CNS = system: SF-539 CNS
Structure (SMILES),GI50 (HCT-116 colon) [µM],TGI (HCT-116 colon) [µM],GI50 (HCT-15 colon) [µM],TGI (HCT-15 colon),GI50 (HL-60(TB) leukemia) [µM],TGI (HL-60(TB) leukemia) [µM],GI50 (HOP-62 NSCLC) [µM],TGI (HOP-62 NSCLC),GI50 (HOP-92 NSCLC) [µM],TGI (HOP-92 NSCLC),GI50 (K-562 leukemia) [µM],TGI (K-562 leukemia),GI50 (KM12 colon) [µM],TGI (KM12 colon),GI50 (NCI/ADR-RES ovarian) [µM],TGI (NCI/ADR-RES ovarian),GI50 (OVCAR-3 ovarian) [µM],TGI (OVCAR-3 ovarian) [µM],GI50 (SF-539 CNS) [µM],TGI (SF-539 CNS)
Cc1ccc(C2=NOC3=c4ccccc4=CSC3=C2c2ccc([N+](=O)[O-])cc2)cc1,3.35,> 100,33.2,> 100 µM,> 100,> 100,13.6,55.8 µM,18,68.2 µM,36.1,> 100 µM,61.1,> 100 µM,31.4,> 100 µM,10,41.9,7.18,25.4 µM
COc1ccc2cc(-c3ccoc(=O)c3-c3cc(OC)c(OC)c(OC)c3)ccc2c1,0.044,,0.059,> 100 µM,0.0353,0.793,0.27,> 100 µM,2.49,> 100 µM,0.0346,> 39.4 µM,0.0238,,0.0528,> 100 µM,0.0316,> 100,0.266,> 100 µM
CS(=O)(=O)c1ccc(C(=O)Nc2ccc(Cl)c(-c3ccccn3)c2)c(Cl)c1,,,,> 100 µM and 21.2 µM,,,,> 100 µM and 19.3 µM,,> 100 µM and 10.7 µM,,> 100 µM and 45.7 µM,,> 100 µM and 10.2 µM,,> 100 µM and 25.7 µM,,,,> 100 µM and 13.7 µM
CN(C)c1ccc2c(c1)Sc1cc(N(C)C)ccc1N2C(=O)c1ccccc1,25,> 100,59.2,> 100 µM,4.5,> 100,92.4,> 100 µM,5.04,89.9 µM,2.69,> 100 µM,31.6,> 100 µM,33.7,> 100 µM,25.7,> 100,38.2,> 100 µM
CCN=C1C=CC(=C(c2ccc(N)cc2)c2ccc(N(CC)CC)c(C)c2)C=C1,0.239,1.11,0.917,4.77 µM,0.304,0.841,0.316,1.73 µM,0.182,0.543 µM,0.259,1.72 µM,0.296,1.09 µM,2.74,> 100 µM,0.368,1.26,0.34,1.36 µM
Cc1ccc(NC(=O)/C=C/c2ccccc2)c(C(N)=O)c1,2.96,> 76.8,2.43,> 100 µM,1.75,6.7,11.1,> 100 µM,15.5,> 100 µM,1.06,> 100 µM,2.44,35.5 µM,2.54,18.2 µM,2.28,6.68,2.07,6.75 µM
CN(C)CCCN1c2ccccc2CCc2ccc(Cl)cc21,3.53,12.3,3.35,12.1 µM,3.63,13.2,10.8,23.3 µM,1.44,6.8 µM,,,3.77,13.6 µM,3.33,14.8 µM,9.17,23.1,5.59,17.7 µM
CCCCNCC(=O)O[C@]1(CC)C(=O)OCc2c1cc1n(c2=O)Cc2cc3ccccc3nc2-1,,4.8,,> 100 µM,,0.314,,,,12.3 µM,,> 48.7 µM,,6.55 µM,,2.03 µM,,12.8,,0.849 µM
Cn1c2c(cc(S(=O)(=O)c3ccccc3)c1=O)CCc1c-2cnn1-c1ccc(Cl)cc1,4.14,> 100,3.02,> 100 µM,> 100,> 100,2.93,7.61 µM,,,> 100,> 100 µM,5.12,> 100 µM,3.09,8.94 µM,2.45,5.67,1.87,3.4 µM
O=c1[nH]c2ccccc2nc1-c1c[nH]c2ccccc12,> 100,> 100,> 100,> 100 µM,> 100,> 100,> 100,> 100 µM,,,> 100,> 100 µM,1.39,> 100 µM,> 100,> 100 µM,9.57,> 100,> 100,> 100 µM
COc1cccc(NC(=O)c2sc3nc4c(cc3c2N)CN(Cc2ccccc2)CC4)c1,1.74,> 100,0.93,> 100 µM,,,1.83,6.47 µM,2.21,24.1 µM,0.53,> 100 µM,11.8,40.3 µM,2.4,33.3 µM,7.53,26.9,1.99,6.56 µM
COc1ccc(C(OCC2OC(n3ccc(NC(=O)c4ccccc4)nc3=O)C(O)C2O)(c2ccccc2)c2ccccc2)cc1 (configuration not stated),,3.23,,3.87 µM,,4.36,,4 µM,,,,5.58 µM,,38.5 µM,,4.89 µM,,3.15,,3.94 µM
COC(=O)C(Cc1ccccc1)NC(=O)NC(=O)NC(=O)CI (configuration not stated),3.27,11.1,1.66,3.13 µM,,,18,33.7 µM,2.51,5.51 µM,2.09,5.08 µM,15.8,32.6 µM,19.8,84.3 µM,2.97,8.89,11.8,24.9 µM
C=CCOC1OC(CO[Si](C)(C)C(C)(C)C)C(OCc2ccccc2)C(OCc2ccccc2)C1OCc1ccccc1 (configuration not stated),,65.9,,> 100 µM,,> 100,,48.3 µM,,> 100 µM,,> 100 µM,,> 100 µM,,> 100 µM,,> 100,,
